{"source": "patent US20140024677A1", "about": "“METHODS FOR INDUCING MITOCHONDRIAL BIOGENESIS” (MUSC Foundation For Research Development, priority 2012, published 2014)", "key": {"mtDNA in heart": {"tested_on": "mtDNA in heart", "test": "mtDNA copy number in heart of dosed mice (D-loop/apoB)", "format": "in vivo, C57BL/6 mice", "text": "(§1) Mitochondrial DNA Content."}, "I/R induced AKI": {"tested_on": "I/R induced AKI", "conditions": "after five doses started 24 h after I/R injury; 144 h", "protocol": "Assessing renal function. For mice, blood was collected by retro-orbital eye bleed 24 h and 144 h. Creatinine levels were measured using a Quantichrom Creatinine Assay Kit (BioAssay Systems, Hayward, Calif.) according to the manufacturer's protocol."}, "renal mitochondria": {"tested_on": "renal mitochondria", "conditions": "treatment after I/R injury", "protocol": "Mitochondrial function was measured ex vivo by isolating renal mitochondria and determining state 4 (basal respiration) and state 3 (ADP-stimulated respiratory rate)."}, "mtDNA in kidney cortex": {"tested_on": "mtDNA in kidney cortex", "test": "mtDNA copy number in kidney of dosed mice (D-loop/apoB)", "format": "in vivo, C57BL/6 mice", "conditions": "72 h after daily repeated i.p. injection with 100 mg/kg (so in the source)", "text": "as §1"}, "[1]": {"tested_on": "KIM-1, PGC-1α, COX I, NDUFB8 in renal cortical tissue", "method": "I/R model of AKI. Eight-week-old male C57BL6 mice weighing 25-30 g were subjected to bilateral renal pedicle ligation. Briefly, renal artery and vein were isolated and blood flow was occluded with a vascular clamp for 20 min, and mice were euthanized at 24, 72, or 144 h after procedure, at which time kidneys were harvested for molecular analysis. All procedures involving animals were performed with approval from the IACUC in accordance with the NIH Guide for the Care and Use of Laboratory Animals.\nImmunoblot analysis. Renal cortical tissue was lysed in RIPA buffer containing cocktail protease and phosphatase inhibitors. Total protein content was measured by the BCA assay. Fifty micrograms of total protein were loaded into SDS-PAGE gels and immunoblots were performed as previously described (26). Antibodies used for immunoblot studies were obtained from the following vendors: caspase 3 (Enzo Life Sciences), GAPDH (Fitzgerald Antibodies), COX I and NDUFB8 (MitoSciences), KIM-1 (R&D Systems), and PGC-1α (Calbiochem).\nmRNA analysis. Total RNA was isolated from renal cortical tissue with TRIzol (Invitrogen) according to the manufacturer's protocol and cDNA was synthesized using RevertAid First Strand cDNA Synthesis Kit (Fermentas). PCR reactions were performed using 3:1 diluted cDNA product. Primers sequences for NDUFB8 and COX I were used.\nPrevious in vivo and in vitro research has identified depletion of mitochondrial function and abundance in models of hypoxia correlated with dysfunctional kidney function."}, "[2]": {"tested_on": "adult feline cardiomyocytes (AFC)", "format": "cell-based", "conditions": "24 hr, formoterol 10 and 30 nM", "protocol": "Respirometry assay. […] Each experimental plate was treated with vehicle controls (DMSO<0.5%), a positive control (SRT1720, 10 μM), blank controls, and the appropriate concentration of the compound of interest. The XF-96 protocol consists of five measurements of basal OCR (1 measurement/1.5 min), injection of FCCP (0.5 μM), and three measurements of uncoupled OCR (1 measurement/1.5 min). […] Quality control evaluations considered the basal and uncoupled rates of the vehicle control, positive control, and variances between duplicate treatment wells. […] This threshold is ≧1 S.D. above the historic mean for the vehicle control."}, "gastrocnemius muscle": {"tested_on": "gastrocnemius muscle", "test": "Dexamethasone-induced muscle wasting, gastrocnemius weight", "format": "in vivo, Mice", "description": "On the 8th day, gastrocnemius muscle was isolated from both the hind limbs and weighed. The average weights were normalized to initial body weights."}}, "data": [{"compound": "COc1ccc(C[C@@H](C)NC[C@H](O)c2ccc(O)c(NC=O)c2)cc1", "note": "(racemic) [formoterol, rac-(R,R)—N-[2-hydroxy-5-[1-hydroxy-2-[1-(4-methoxyphenyl)propan-2-ylamino]ethyl]phenyl]formamide]", "values": [{"measurement": "mtDNA copy number increase (FIG. 3C, heart figure)", "setting": "mtDNA in heart; 24 h, i.p. 100 mg/kg (so in the source)", "result": 2, "unit": "fold"}, {"measurement": "mtDNA copy number increase (FIG. 3C, heart figure)", "setting": "mtDNA in heart; 72 h, daily repeated i.p. 100 mg/kg (so in the source)", "result": 2.5, "unit": "fold"}, {"measurement": "Serum creatinine (SCr)", "setting": "I/R induced AKI", "result": 0.29, "unit": "mg/dL"}, {"measurement": "Mitochondrial respiration of isolated renal mitochondria (basal and state 3)", "setting": "renal mitochondria", "result": "completely restore"}, {"measurement": "mtDNA copy number increase, kidney cortex", "setting": "mtDNA in kidney cortex", "result": 2, "unit": "fold"}, {"measurement": "KIM-1 protein expression", "setting": "[1]; 144 h post I/R injury", "result": "to the level of sham vehicle"}, {"measurement": "Gene transcription and protein translation in sham animals", "setting": "[1]; sham animals exposed to formoterol vs control animals", "result": "not significantly altered"}, {"measurement": "COX I gene expression", "setting": "[1]; treatment after I/R, 144 h", "result": "restored with treatment of formoterol after I/R, but not significantly different than the I/R vehicle group"}, {"measurement": "COX I protein expression", "setting": "[1]; treatment after I/R, 144 h", "result": "significantly above the I/R vehicle group"}, {"measurement": "NDUFB8 gene transcription", "setting": "[1]; treatment after I/R, 144 h", "result": "did not restore"}, {"measurement": "NDUFB8 protein expression", "setting": "[1]; treatment after I/R, 144 h", "result": "significantly above the I/R vehicle group"}, {"measurement": "Total PGC-1α gene expression", "setting": "[1]; treatment from 24 h post I/R injury, 144 h", "result": "significantly above the I/R vehicle group, but not fully restored to control levels"}]}, {"compound": "C[C@H](Cc1ccc(OCC(=O)O)cc1)NC[C@H](O)c1cccc(Cl)c1.O.[Na]", "note": "(relative stereo) [BRL 37344, (±)-(R*,R*)-[4-[2-[[2-(3-Chlorophenyl)-2-hydroxyethyl]amino]propyl]phenoxy]acetic acid sodium hydrate]", "values": [{"measurement": "Change in FCCP-uncoupled OCR", "setting": "[2]", "result": "did not have any significant effects"}]}, {"compound": "C[C@@H]1C[C@H]2[C@@H]3CCC4=CC(=O)C=C[C@]4(C)[C@@]3(F)[C@@H](O)C[C@]2(C)[C@@]1(O)C(=O)CO", "note": "[DEX, dexamethasone]", "values": [{"measurement": "Decrease in gastrocnemius wt. compared to saline controls", "setting": "gastrocnemius muscle; 25 mg/kg i.p., 7 days, weight normalized to initial body weight", "result": 15, "unit": "%"}]}, {"compound": "CC(C)NC[C@H](O)c1ccc(O)c(O)c1.Cl", "note": "[isoproterenol, (R)-3,4-Dihydroxy-α-(isopropylaminomethyl)benzyl alcohol hydrochloride]", "values": [{"measurement": "Change in FCCP-uncoupled OCR", "setting": "[2]", "result": "did not have any significant effects"}]}, {"compound": "(3R)-N-methyl-3-(2-methylphenoxy)-3-phenylpropan-1-amine [Tomoxetine]", "values": [{"measurement": "Gastrocnemius muscle weight in DEX-treated mice", "setting": "gastrocnemius muscle; co-injected with dexamethasone 25 mg/kg i.p. for 7 days, formoterol 100/300 ug/Kg i.p., atomoxetine 100 ug/kg i.p.", "result": "restored atrophied muscle back to normal"}]}]}
